Where a name gives a salt, the structure may show the parent alone.

The IC50 is the point on the concentration scale where inhibition reaches its midpoint.

Sequence of recombinant human AMCase (Q9BZP6 22-476): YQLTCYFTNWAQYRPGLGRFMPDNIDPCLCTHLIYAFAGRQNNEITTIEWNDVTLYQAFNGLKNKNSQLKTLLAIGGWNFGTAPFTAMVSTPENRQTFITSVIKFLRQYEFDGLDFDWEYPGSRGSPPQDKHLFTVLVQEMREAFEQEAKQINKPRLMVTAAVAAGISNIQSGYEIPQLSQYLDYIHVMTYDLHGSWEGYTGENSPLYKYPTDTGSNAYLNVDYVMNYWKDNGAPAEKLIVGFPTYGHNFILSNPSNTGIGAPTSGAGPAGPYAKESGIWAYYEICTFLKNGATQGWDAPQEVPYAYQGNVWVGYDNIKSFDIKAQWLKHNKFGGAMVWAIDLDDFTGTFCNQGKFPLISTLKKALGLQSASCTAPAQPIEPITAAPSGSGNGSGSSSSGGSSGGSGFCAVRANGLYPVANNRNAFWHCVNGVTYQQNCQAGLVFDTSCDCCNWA

This test has as its target recombinant human AMCase (Homo sapiens, UniProt Q9BZP6). Put plainly: Human AMCase Activity Assay. It is filed as biochemical. Particulars: recombinant hAMCase, 4-methylumbelliferyl chitobioside substrate, citrate buffer pH 5.2, 37° C., 60 minutes; read-out: Activity (IC50 value key). In outline:
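Recombinant human enzyme with fluorogenic 4-methylumbelliferyl β-D-N,N′-diacetylchitobioside substrate in citrate buffer, pH 5.2, 60 min at 37 °C in the dark with shaking. Read-out is 4MU fluorescence at 460 nm.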
Turning to `CC(=O)NC(CC(=O)N1CCN(c2nc(N)n[nH]2)CC1)c1cccc(F)c1` (stereo not drawn) [Example 222, N-(3-(4-(3-amino-1H-1,2,4-triazol-5-yl)piperazin-1-yl)-1-(3-fluorophenyl)-3-oxopropyl)acetamide], the IC50 was > 100 µM.
Regarding `Nc1n[nH]c(N2CCN(CCCc3ccc(C(F)(F)F)cc3)C(CCCO)C2)n1` (stereo not drawn) [Example 223, 3-(4-(3-amino-1H-1,2,4-triazol-5-yl)-1-(3-(4-(trifluoromethyl)phenyl)propyl)piperazin-2-yl)propan-1-ol], the IC50 fell in the range of 1 to 10 µM.
The value for `CC(=O)OCCCC1CN(c2nc(N)n[nH]2)CCN1CCCc1ccc(Br)cc1` (stereo not drawn) [Example 224, 3-(4-(3-amino-1H-1,2,4-triazol-5-yl)-1-(3-(4-bromophenyl)propyl)piperazin-2-yl)propylacetate] was 0.1 to 1 µM.
The value for `Nc1n[nH]c(N2CCN(CCCc3ccc(Br)cc3)C(CCCO)C2)n1` (stereo not drawn) [Example 225, 3-(4-(3-amino-1H-1,2,4-triazol-5-yl)-1-(3-(4-bromophenyl)propyl)piperazin-2-yl)propan-1-ol] was 1 to 10 µM; that for `Nc1n[nH]c(N2CCN(CCCc3ccccc3)C(CCCO)C2)n1` (stereo not drawn) [Example 226] was 10 to 100 µM; that for `CN(CCc1ccc(Cl)cc1)C1(CCO)CCN(c2nc(N)n[nH]2)CC1` [Example 228, 2-(1-(3-amino-1H-1,2,4-triazol-5-yl)-4-((4-chlorophenethyl)(methyl)amino)piperidin-4-yl)ethanol] was 0.1 to 1 µM.
Take `CC(C)(O)CCC1CN(c2nc(N)n[nH]2)CCN1CCCc1ccc(Br)cc1` (stereo not drawn) [Example 229, 4-(4-(3-amino-1H-1,2,4-triazol-5-yl)-1-(3-(4-bromophenyl)propyl)piperazin-2-yl)-2-methylbutan-2-ol]: the IC50 was 1 to 10 µM.
For `CC1CN(c2nc(N)n[nH]2)CCC1N(C)CCc1ccc(Br)cc1` (stereo not drawn) [Example 230, 1-(3-amino-1H-1,2,4-triazol-5-yl)-N-(4-bromophenethyl)-N,3-dimethylpiperidin-4-amine dihydrochloride], the concentration for half-maximal inhibition (IC50) fell in the range of 0.1 to 1 µM.
Then `CCC(Cc1ccc(Cl)cc1)N(CC)C1CCN(c2nc(N)n[nH]2)CC1` (stereo not drawn) [Example 232, 1-(3-amino-1H-1,2,4-triazol-5-yl)-N-(1-(4-chlorophenyl)butan-2-yl)-N-ethylpiperidin-4-amine dihydrochloride], with 0.1 to 1 µM; and `Nc1n[nH]c(N2CCN(C(=O)CC(N)c3cccc(F)c3)CC2)n1` (stereo not drawn) [Example 233, 3-amino-1-(4-(3-amino-1H-1,2,4-triazol-5-yl)piperazin-1-yl)-3-(3-fluorophenyl)propan-1-one], with > 100 µM; and `CC1(C(=O)NCc2ccc(Cl)cc2)CCN(c2nc(N)n[nH]2)CC1` [Example 235, 1-(3-amino-1H-1,2,4-triazol-5-yl)-N-(4-chlorobenzyl)-4-methylpiperidine-4-carboxamide], with > 100 µM.
In the case of `CC1(C(=O)NCc2ccc(Br)cc2)CCN(c2nc(N)n[nH]2)CC1` [Example 237, 1-(3-amino-1H-1,2,4-triazol-5-yl)-N-(4-bromobenzyl)-4-methylpiperidine-4-carboxamide], the IC50 is > 100 µM.
For the molecule `CCN(C1CCN(c2nc(N)n[nH]2)CC1)S(=O)(=O)Cc1cccc(Cl)c1` [Example 238, N-(1-(3-amino-1H-1,2,4-triazol-5-yl)piperidin-4-yl)-1-(3-chlorophenyl)-N-ethylmethanesulfonamide], the IC50 was in the range of 0.1 to 1 µM.
Consider `CN(C)C(Cc1ccc(Cl)cc1Cl)C(=O)N1CCN(c2nc(N)n[nH]2)CC1` (stereo not drawn) [Example 240, 1-(4-(3-amino-1H-1,2,4-triazol-5-yl)piperazin-1-yl)-3-(2,4-dichlorophenyl)-2-(dimethylamino)propan-1-one], for which the IC50 is > 100 µM.
On to `C[C@H](CN1CCN(c2nc(N)n[nH]2)CC1)Oc1ccc(Cl)cc1` [Example 241, (R)-5-(4-(2-(4-chlorophenoxy)propyl)piperazin-1-yl)-1H-1,2,4-triazol-3-amine dihydrochloride], for which the IC50 is > 100 µM.
On to `CN(C)C(CC(=O)N1CCN(c2nc(N)n[nH]2)CC1)c1ccccc1F` (stereo not drawn) [Example 242, 1-(4-(3-amino-1H-1,2,4-triazol-5-yl)piperazin-1-yl)-3-(dimethylamino)-3-(2-fluorophenyl)propan-1-one dihydrochloride], for which the IC50 was > 100 µM.
`Nc1n[nH]c(N2CCC(CNC(=O)c3cc(Cl)cc(Cl)c3)CC2)n1` [Example 243, N-((1-(3-amino-1H-1,2,4-triazol-5-yl)piperidin-4-yl)methyl)-3,5-dichlorobenzamide]: the IC50 is > 100 µM.
`CC1CN(c2nc(N)n[nH]2)CCC1NS(=O)(=O)Cc1ccc(Br)cc1` (stereo not drawn) [Example 244, N-(1-(3-amino-1H-1,2,4-triazol-5-yl)-3-methylpiperidin-4-yl)-1-(4-bromophenyl)methanesulfonamide]: the IC50 lay in the range of 1 to 10 µM.
As to `CN(CCc1ccc(Cl)cc1)C1(CCCO)CCN(c2nc(N)n[nH]2)CC1` [Example 245, 3-(1-(3-amino-1H-1,2,4-triazol-5-yl)-4-((4-chlorophenethyl)(methyl)amino)piperidin-4-yl)propan-1-ol], the IC50 is 1 to 10 µM.
Regarding `CN(CCc1ccc(Br)cc1)C1CCN(c2nc(N)n[nH]2)CC1CCCO` (stereo not drawn) [Example 246, 3-(1-(3-amino-1H-1,2,4-triazol-5-yl)-4-((4-bromophenethyl)(methyl)amino)piperidin-3-yl)propan-1-ol], the IC50 is < 0.1 µM.
On to `CCCC1(NCCc2ccc(Br)cc2)CCN(c2nc(N)n[nH]2)CC1` [Example 247, 1-(3-amino-1H-1,2,4-triazol-5-yl)-N-(4-bromophenethyl)1-4-propyl piperidin-4-amine, dihydrochloride], for which the IC50 was 1 to 10 µM.
As to `CN(C1CCN(c2nc(N)n[nH]2)CC1)S(=O)(=O)Cc1cccc(Cl)c1` [Example 248, N-(1-(3-amino-1H-1,2,4-triazol-5-yl)piperidin-4-yl)-2-(3-chlorophenyl)-N-methylmethanesulfonamide hydrochloride], the 50% inhibitory concentration (IC50) was > 100 µM.
For `CN(CCc1ccc(Cl)cc1)C1CCN(c2nc(N)n[nH]2)CC1F` (stereo not drawn) [Example 249, 1-(3-amino-1H-1,2,4-triazol-5-yl)-N-(4-chlorophenethyl)-3-fluoro-N-methylpiperidin-4-amine], the IC50 is 1 to 10 µM.
In the case of `CN(C1CCN(c2nc(N)n[nH]2)CC1)C1CCc2ccccc2C1` (stereo not drawn) [Example 250, 1-(3-amino-1H-1,2,4-triazol-5-yl)-N-methyl-N-(1,2,3,4-tetrahydronaphthalen-2-yl)piperidin-4-amine dihydrochloride], the IC50 is > 100 µM.
For the molecule `Nc1n[nH]c(N2CCC(NCCc3ccc(Cl)cc3)C(CCCO)C2)n1` (stereo not drawn) [Example 251, 3-(1-(3-amino-1H-1,2,4-triazol-5-yl)-4-((4-chlorophenethyl)amino)piperidin-3-yl)propan-1-ol dihydrochloride], the IC50 is < 0.1 µM.
For `Nc1n[nH]c(N2CCC(CNCc3ccc(Cl)c(Cl)c3)CC2)n1` [Example 252, 5-(4-(((3,4-dichlorobenzyl)amino)methyl)piperidin-1-yl)-1H-1,2,4-triazol-3-amine dihydrochloride], the half-inhibitory concentration (IC50) was > 100 µM.
Regarding `Nc1n[nH]c(N2CCC3C(CCCN3CCc3ccc(Br)cc3)C2)n1` (stereo not drawn) [Example 253, 5-(1-(4-bromophenethyl)octahydro-1,6-naphthyridin-6(2H)-yl)-1H-1,2,4-triazol-3-amine dihydrochloride], the IC50 is < 0.1 µM.
